Where two headings read alike, the source gives them in different places.
Experiments:
[1] = Serum pharmacokinetic study, single oral gavage; type: in vivo, C57BL/6J mice; settings: for AUC(0-inf) / AUC(0-t) / Cmax / Tmax / half-life / MRT last: male, mouse, serum, po, orally once, normal C57BL/6J mice; for MRT last: read-out: MRT(0-t)
Procedure: Then, each group was subdivided into three groups for blood extraction: Group 1, sample collection after 0.5 hours and 2 hours of treatment (n=3); Group 2, sample collection after 1 hour and 4 hours of treatment (n=3); and Group 3, sample collection after 8 hours and 24 hours of treatment (n=3). Approximately 100 μl of blood was collected from the orbit and centrifuged (3500 g, 15 min, 4°C) to extract serum and placed on ice (0°C), and 20 μl of serum was added to 200 μl of extractant (containing 200 ng/ml methanol), which was assessed by liquid chromatography-tandem mass spectrometry (LC−MS/MS) procedures. […]

[2] = Tissue distribution study (heart, liver, kidney, blood) by LC-MS/MS; type: in vivo, C57BL/6J mice; settings: for Concentration, Blood / Concentration, Heart / Kp at 24 h: 24h; for Concentration, Blood / Concentration, Heart: mean; for Kp at 2 h / Kp at 4 h / Kp at 24 h: C57BL/6J, mouse
Procedure: To detect the tissue distribution of drugs, the heart, liver, and kidney of mice in Group 1, Group 2, and Group 3 were collected at 2 hours, 4 hours, and 24 hours, respectively. Then, 1 ml of 1X PBS was added for tissue homogenization. 50 μl tissue homogenate was added to 500 μl of extractant (containing 200 ng/ml methanol). The protein of tissue samples was precipitated by vortex oscillation for 5 min and centrifuged at 13,000 rpm for 10 min, and 150 μL of supernatant was collected and determined by LC−MS/MS procedures.

[3] = DIO mouse study: body weight, food intake, liver and heart weight; type: in vivo; settings: DIO mice
Procedure: (§1) All animal experiments were performed at Chipscreen Biosciences (Shenzhen, China) according to the National Research Council’s Guide for the Care and Use of Laboratory Animals and the Regulations of Experimental Animal Administration issued by the State Committee of Science and Technology of China and approved by Shenzhen Peking University - The Hong Kong University of Science and Technology Medical Center’s Ethics Committee for the Welfare of Laboratory Animals (approval no. 2022-988). Forty C57BL/6J mice (4-5 weeks, male) were received and raised under a standard 12-hour light/dark cycle (lights off at 7:00 pm). Thirty-five mice were fed a fat-rich diet (SYSE Bio-tech, D12492i; 60% of kcal from fat; Changzhou, China), and the other five mice were fed a control diet (Guangdong Medical Laboratory Animal Center, Foshan, China) ad libitum for 12 weeks. […] The mice from Group 2 to Group 5 were fed a high-fat diet. […] Body weight and food intake were measured once daily during treatment. All mice were sacrificed after treatment, and blood, hearts, and livers were collected for further validation.

[4] = system: DIO mice; experiment: DIO mouse study: serum biochemical indices; type: in vivo
Procedure: as §1
Blood samples were collected from the orbit and placed for 30 min at room temperature and then centrifuged (3500 g, 15 min, 4°C), and the serum was collected for TG, TC, AST, and ALT tests. For the liver TG and TC tests, the right lobe of the liver was collected and weighed accurately, and then isopropanol and absolute ethanol were added at a ratio of 1:9 (weight/volume) for tissue homogenization on ice. Next, the liver sample was centrifuged (10,000 g and 2500 g, 10 min, at 4°C for liver TG and TC extraction, respectively), and the supernatant was collected for liver TG and TC assays. Tests for TC, ALT and AST were performed following the manufacturer’s instructions.

[5] = system: DIO mice; experiment: DIO mouse study: liver TG and TC; type: in vivo, C57BL/6J mice; settings: 3 mg/kg, 10 weeks
Procedure: as §1
Blood samples were collected from the orbit and placed for 30 min at room temperature and then centrifuged (3500 g, 15 min, 4°C), and the serum was collected for TG, TC, AST, and ALT tests. […]

[6] = system: DIO mice; experiment: DIO mouse study: liver histology (H&E, Oil Red O, NAFLD activity score); type: in vivo, C57BL/6J mice; settings: 3 mg/kg, 10 weeks
Procedure: All animal experiments were performed at Chipscreen Biosciences (Shenzhen, China) according to the National Research Council’s Guide for the Care and Use of Laboratory Animals and the Regulations of Experimental Animal Administration issued by the State Committee of Science and Technology of China and approved by Shenzhen Peking University - The Hong Kong University of Science and Technology Medical Center’s Ethics Committee for the Welfare of Laboratory Animals (approval no. 2022-988). Forty C57BL/6J mice (4-5 weeks, male) were received and raised under a standard 12-hour light/dark cycle (lights off at 7:00 pm). Thirty-five mice were fed a fat-rich diet (SYSE Bio-tech, D12492i; 60% of kcal from fat; Changzhou, China), and the other five mice were fed a control diet (Guangdong Medical Laboratory Animal Center, Foshan, China) ad libitum for 12 weeks. […] The mice from Group 2 to Group 5 were fed a high-fat diet. Treatments started on the thirteenth week and lasted 10 weeks, in which Groups 1 and 2 received solvent (0.2% CMC-Na), and the other groups were administered corresponding compounds orally once daily (the volume of solvent was 5 ml/kg). Body weight and food intake were measured once daily during treatment. All mice were sacrificed after treatment, and blood, hearts, and livers were collected for further validation.
After the animals were sacrificed, the left hepatic lobe was collected (approximately 100–200 mg) and fixed in 4% paraformaldehyde overnight. The liver tissue was sectioned at a thickness of 5 μm after being paraffin-embedded. Liver sections were stained with haematoxylin and eosin (H&E), and the NAFLD activity scores were determined based on the steatosis, lobular inflammation, and hepatocyte ballooning degeneration in accordance with the standard proposed by Kleiner ([17]).
To analyse the content of lipids in the liver, Oil Red O (ORO) staining of isobutyl alcohol-frozen liver sections was conducted by Wuhan Servicebio Technology Co., Ltd. (Wuhan, China). Each positive region of ORO staining was quantified for each sample using Imangepro plus 6.0 software ([…]).

[7] = system: DIO mice; experiment: RT-PCR of hepatic genes, DIO mice; type: in vivo, C57BL/6J mice
Procedure: The total RNA of fresh liver tissue was extracted using TRIzol reagent (Invitrogen, Carlsbad, CA, USA), and RNA quality was measured using a Nanodrop2000 by calculating the 260/280 ratio. Based on the manufacturer’s instructions, we reverse-transcribed 5 μg of isolated RNA with a Transcriptor First Strand cDNA Synthesis Kit (Roche Diagnostics, Mannheim, Germany). Real-time PCR (RT−PCR) was conducted to measure the relative expression of genes by using SYBR Green Master (ROX) dye (Roche Diagnostics, Mannheim, Germany) and the ABI Prism 7000 Sequence Detection System (Applied Biosystems, Foster City, CA, USA). Changes in target mRNA were standardized to β-actin mRNA levels for each sample in triplicate. The 2-^△△Ct method was used to determine the relative mRNA expression levels.

[8] = system: DIO mice; experiment: RT-PCR of myocardial energy metabolism gene mGPDH, DIO mice; type: in vivo, C57BL/6J mice
[9] = system: HMC; experiment: Cell viability in kidney cell line HMC; type: cell-based
[10] = system: NRK49F; experiment: Cell viability in kidney cell line NRK49F; type: cell-based
[11] = heart/blood, 10 mg/kg oral, read-out: Ratio (tissue/blood), Heart
[12] = kidney/blood, 10 mg/kg oral, read-out: Ratio (tissue/blood), Kidney
[13] = liver/blood, 10 mg/kg oral, read-out: Ratio (tissue/blood), Liver
[14] = male, heart / blood, 3 mg/kg oral, read-out: Ratio (tissue/blood), Heart
[15] = male, kidney / blood, 3 mg/kg oral, read-out: Ratio (tissue/blood), Kidney
[16] = male, liver / blood, 3 mg/kg oral, read-out: Ratio (tissue/blood), Liver
[17] = 10 weeks oral once daily, CS271011 1 and 3 mg/kg, MGL-3196 3 mg/kg
[18] = 10 weeks of treatment, CS271011 1 and 3 mg/kg, MGL-3196 3 mg/kg

With `CC(C)c1cc(Oc2c(Cl)cc(-n3nc(C#N)c(=O)[nH]c3=O)cc2Cl)n[nH]c1=O` [MGL-3196, 2-[3,5-dichloro-4-(5-isopropyl-6-oxo-1,6-dihydropyridazin-3-yloxy)phenyl]-3,5-dio xo-2,3,4,5-tetrahydro[1,2,4]triazine-6-carbonitrile] the “bioavailability in vivo, comparison at the same dosage” value ([1]; 3 mg/kg and 10 mg/kg oral) was “higher bioavailability in vivo than CS271011”, the AUC(0-inf) ([1]; 3mg/kg) was 9470 ng·h/mL and the AUC(0-t) ([1]; 3mg/kg) was 9330 ng·h/mL. For the same compound, the Cmax ([1]; 3mg/kg) was 1140 ng/mL, the Tmax ([1]; 3mg/kg) was 2 h and the half-life ([1]; 3mg/kg) was 3.8 h. For the same compound, the MRT last ([1]; 3mg/kg) was 6.3 h, the AUC(0-inf) ([1]; 10mg/kg) was 35800 ng·h/mL and the AUC(0-t) ([1]; 10mg/kg) was 35600 ng·h/mL. The Cmax ([1]; 10mg/kg) was 4870 ng/mL, the Tmax ([1]; 10mg/kg) was 2 h and the half-life ([1]; 10mg/kg) was 3 h. For the same compound, the MRT last ([1]; 10mg/kg) was 5.8 h, the “tissue distribution (liver targeting)” value ([2]; 3 mg/kg and 10 mg/kg oral, especially 2 and 4 hours after administration) was “liver-targeted” and the “Concentration, Blood” value ([2]; 3 mg/kg oral) was 25.40 ng/g. The “Concentration, Heart” value ([2]; 3 mg/kg oral) was 78.08 ng/g, the “Concentration, Blood” value ([2]; 10 mg/kg oral) was 42.40 ng/g and the “Concentration, Heart” value ([2]; 10 mg/kg oral) was 147.91 ng/g. It also gave a Kp at 2 h [2, 11] of 0.113, a Kp at 4 h [2, 11] of 0.112 and a Kp at 24 h [2, 11] of 3.49. For the same compound, the Kp at 2 h [2, 12] was 0.572, the Kp at 4 h [2, 12] was 0.607 and the Kp at 24 h [2, 12] was 0.734. For the same compound, the Kp at 2 h [2, 13] was 4.59, the Kp at 4 h [2, 13] was 4.63 and the Kp at 24 h [2, 13] was 4.8. For the same compound, the Kp at 2 h [2, 14] was 0.213, the Kp at 4 h [2, 14] was 0.146 and the Kp at 24 h [2, 14] was 3.07. It also gave a Kp at 2 h [2, 15] of 0.64, a Kp at 4 h [2, 15] of 0.617 and a Kp at 24 h [2, 15] of 1.25. For the same compound, the Kp at 2 h [2, 16] was 6.59, the Kp at 4 h [2, 16] was 6.17 and the Kp at 24 h [2, 16] was 3.17. The “liver weight and LW/BW” value ([3]; 10-week drug intervention) was “dramatically reduced”, the body weight [3, 17] was “dramatic reduction in body weight” and the food intake [3, 17] was “neither CS271011 nor MGL-3196 impeded food intake”. The “Serum TG” value ([4]; 3 mg/kg, 10 weeks, mean ± SD (DIO control 1.25±0.38)) was 0.59 ± 0.11 mmol/L, the “Serum TC” value ([4]; 3 mg/kg, 10 weeks, mean ± SD (DIO control 7.79±1.67)) was 3.46 ± 1.61 mmol/L and the “serum ALT and AST levels” value ([4]; 10 weeks of treatment) was “no influence”. The “serum TC vs. DIO control” value [4, 18] was “significant reduction”, the “serum TG vs. DIO control” value [4, 18] was “significant reduction” and the “hepatic TC concentration” value [5] was “markedly reduced”. For the same compound, the “hepatic TG concentration” value [5] was “markedly reduced”, the NAS score [6] was “equivalent efficacy” and the ORO staining area [6] was “decreased”. For the same compound, the hepatic ballooning [6] was “mitigated hepatic ballooning with a considerable effect”, the steatosis score [6] was “decreased” and the “hepatic expression of Abcc3” value [7] was “negatively regulated”. The “hepatic expression of Csad, Slc25a30 and Tff3 (downregulated in DIO mice)” value [7] was “rescued”, the “hepatic expression of Cyp4a10” value [7] was “obviously downregulated” and the “hepatic expression of Cyp39a1” value [7] was “upregulated”. The “hepatic expression of Hsd17b6” value [7] was “diminished”, the “hepatic expression of LDLR, Cyp7a1, Cyp17a1, Srebp2 and Sqle” value [7] was “positively regulated” and the “hepatic expression of Srebf1” value [7] was “strongly downregulated”. The “mGPDH expression in the hearts of DIO mice” value [8] was “barely affects”, the cell viability [9] was “no effect on cell viability” and the cell viability [10] was “no effect on cell viability”.

Source: publication PMC9896003, “Discovery of a novel, liver-targeted thyroid hormone receptor-β agonist, CS271011, in the treatment of lipid metabolism disorders” (Frontiers in Endocrinology, 2023)
